System: inflammation induced by the implant
Experiment: Expression of inflammation-related genes in sciatic nerve and surrounding muscle tissue after implant
Assay type: in vivo, rodent
Conditions: release of bupivacaine from the implant
Source text: FIG. 13A, FIG. 13B, FIG. 13C, FIG. 13D, and FIG. 13E show the expression of genes related to inflammation in sciatic nerve tissue: TNF-α (FIG. 13A); IL-1β (FIG. 13B); IL-6 (FIG. 13C); PTGS2 (COX-2) (FIG. 13D); and NOS2 (FIG. 13E); respectively; FIG. 14A, FIG. 14B, FIG. 14C, FIG. 14D, and FIG. 14E show the expression of genes related to inflammation in surrounding muscle tissue: COX-2 expression (FIG. 14A); IL-6 expression (FIG. 14B); TNF-α expression (FIG. 14C); IL-1β expression (FIG. 14D); and iNOS expression (FIG. 14E);

CCCCN1CCCCC1C(=O)Nc1c(C)cccc1C (stereo not shown) [bupivacaine]
inflammation induced by the implant: decreased the inflammation induced by the implant

Source: patent US20180361032A1, “IMPLANTABLE ELECTROSPUN PATCHES FOR SITE-DIRECTED DRUG DELIVERY” (The Methodist Hospital, priority 2016, published 2018)
